Test results as given in PMC5978685, “Design, Synthesis, and Evaluation of Novel Immunomodulatory Small Molecules Targeting the CD40–CD154 Costimulatory Protein-Protein Interaction” (Molecules : A Journal of Synthetic Chemistry and Natural …, 2018).
“Also recorded” adds a separate entry of the source. Read-outs that look alike come from different tables or passages of the source.

Experiments:
CD40–CD154 (CD40L) = molecular target: T1, CD40–CD154 (CD40L) (Homo sapiens, UniProt P29965); test: cell-free ELISA-type binding inhibition assay, CD40–CD154; settings: for IC50: cell-free CD40–CD154 binding inhibition, read-out: CD40 IC50; for selectivity toward CD40–CD154 against all other PPIs tested: vs OX40–OX40L, BAFFR–BAFF, TNF-R1–TNF-α
T1 construct: purchased Enzo Life Sciences
T1 sequence (P29965 116-261 limits assumed): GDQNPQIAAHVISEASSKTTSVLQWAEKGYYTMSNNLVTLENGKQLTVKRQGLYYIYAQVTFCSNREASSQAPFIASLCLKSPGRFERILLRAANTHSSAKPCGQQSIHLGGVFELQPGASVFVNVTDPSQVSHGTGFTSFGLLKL
Description: As a first assessment, the CD40–CD154 inhibitory activity of compounds 6–19 (Figure 2, Table 1) was quantified using a cell-free in vitro binding inhibition assay as described before. Data fitted with typical sigmoidal concentration dependence curves (log inhibitor versus response model in GraphPad Prism, Hill slope n = 1) are summarized in Figure 3A. […] Polymolecular conglomeration and/or aggregation is often a cause of promiscuous inhibition in screening assays. Therefore, just as in our previous work, we checked for this, and we confirmed for several compounds that inhibition due to aggregation is not the case by retesting inhibitory activity in the presence of a non-ionic detergent (Triton-X 100, 0.01%) as recommended for the detection of such effects.
(§1) Binding inhibition assays were performed in a 96-well cell-free format as described before. Briefly, microtiter plates (Nunc F Maxisorp, 96-well; Thermo Fisher Scientific, Waltham, MA, USA) were coated overnight at 4 °C with 100 μL/well of Fc-conjugated receptors diluted in PBS pH 7.2. This was followed by blocking with 200 μL/well of blocking solution (PBS pH 7.2, 0.05% Tween-20, 1% BSA) for 1 h at RT. Then, plates were washed twice using washing solution (PBS pH 7.4, 0.05% Tween-20) and tapped dry before the addition of the appropriate FLAG tagged ligands along with different concentrations of tested dyes diluted in binding buffer (100 mM HEPES, 0.005% BSA pH 7.2) to give a total volume of 100 μL/well. After 1 h incubation, three washes were conducted, and anti-FLAG HRP conjugate was used to detect the bound FLAG-tagged ligand. Plates were washed four times before the addition of 120 μL/well of HRP substrate TMB (3,3′,5,5′-tetramethylbenzidine) and kept in the dark for up to 15 min. The reaction was stopped using 30 μL of 1M H2SO4, and the absorbance value was read at 450 nm. The concentrations of receptors used were 0.3 μg/mL for CD40, TNF-R1, and BAFFR; 0.6 μg/mL for OX40. The concentrations of the ligands were fixed at 0.02 μg/mL for CD154 and TNF-α, 0.06 μg/mL for OX40L, and 0.03 μg/mL for BAFF. These values were selected following preliminary testing to optimize response (i.e., to produce a high-enough signal at conditions close to half-maximal response, EC50). […] To verify that inhibition is not due to colloidal aggregation, CD40 binding inhibition was also measured in the presence of the non-ionic detergent Triton-X 100 (0.01%), as recommended for the detection of such effects.
(§2) All binding inhibition and cell assays were tested in duplicate or triplicate per plates, and assays were performed as at least three independent experiments. As before, binding and cytotoxicity data were converted to percent inhibition and fitted with standard log inhibitor vs. normalized response models using nonlinear regression in GraphPad Prism (GraphPad, La Jolla, CA, USA) to establish half-maximal (median) inhibitory concentration (IC50) or median lethal concentration (LC50) values. Cell assay data were fitted with a similar model that also allowed for a variable slope using the log inhibitor vs. normalized response (variable slope) model from Prism with a Hill slope (n) shared across all compounds. Cell assays and draining lymph node data were analyzed by one-way repeated-measures analysis of variance (ANOVA) followed by Dunnett’s multiple comparison test as a post hoc test for individual differences using GraphPad Prism and a significance level of p < 0.05 for all comparisons.
(§3) Data are (counterclockwise) for human CD40–CD154 (CD40L) (A); OX40–OX40L (B); BAFFR–BAFF (C); and TNF-R1–TNFα (D) and were fitted with standard binding curves. Data are average ± SD (normalized to percent binding) for n = 3 independent experiments with duplicates for each condition.

OX40–OX40L = molecular target: T2, OX40–OX40L (Homo sapiens, UniProt P23510); test: cell-free ELISA-type binding inhibition assay, OX40–OX40L
T2 construct: purchased Enzo Life Sciences
T2 sequence (P23510 51-183 limits assumed): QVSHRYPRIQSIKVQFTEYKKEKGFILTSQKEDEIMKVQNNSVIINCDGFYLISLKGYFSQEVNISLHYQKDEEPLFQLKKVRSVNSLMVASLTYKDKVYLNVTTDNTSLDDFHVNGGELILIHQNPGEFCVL
Method: (§4) In parallel with the CD40–CD154 assay, the ability of these compounds to inhibit other TNFSFR–TNFSF PPIs, including OX40–OX40L, BAFFR–BAFF, and TNF-R1–TNF-α, was also assessed (Figure 3B–D).
as §1, §2, §3

TNF-R1–TNFα = molecular target: T3, TNF-R1–TNFα (Homo sapiens, UniProt P01375); test: cell-free ELISA-type binding inhibition assay, TNF-R1–TNFα
T3 construct: purchased Enzo Life Sciences
Method: as §4, §1, §2, §3

[1] = tested on: alloantigen-induced T cell response in draining popliteal lymph node; test: alloantigen-induced T cell expansion in draining lymph node; assay type: in vivo, mouse (Balb/c); settings: Balb/c mice, DBA-2 splenocytes in footpad; 10–20 mg/kg s.c. b.i.d.; p < 0.0001 vs vehicle
Method: The most promising compounds of the present series were evaluated for in vivo activity using the same model of alloantigen-induced T cell expansion in the draining lymph nodes (DLNs) that was described before. This procedure involved injection of splenocytes isolated from DBA-2 mice into the footpad of Balb/c recipients. Within three full days, this causes a significant increase in the number of cells in the draining popliteal lymph node, and this is inhibited by compounds with immunosuppressive activity.
The ability to inhibit alloantigen-induced T cell response in a draining lymph node was tested as described before. In brief, BALB/c mice (10–12 weeks old, female) received a footpad injection of 1 × 10^7 splenocytes isolated from DBA-2 mice (10–12 weeks old, male). CD154 antibody (MR-1; 20 mg/kg, day −1 and 0) or test compounds (20–60 mg/kg; b.i.d. from day −1 to 3, in 20% HPβCD) were administered s.c., and the draining popliteal lymph nodes (DLNs) were collected 3 days after the alloantigen challenge. DLN cells were counted and data are shown as mean ± SD (n = 3–4 per group).
as §2
Figure 6 Inhibition of alloantigen-induced T cell response in a draining lymph node by compounds 6, 15, 18, and 19. Mice (Balb/c) received a footpad injection of allogeneic splenocytes (isolated from DBA-2 mice) and were treated with anti-CD154 antibody (MR-1; 20 mg/kg, day −1 and 0) or compounds as shown (10–40 mg/kg, b.i.d. from day −1 to 3, s.c. in 20% HPβCD). Draining (popliteal) lymph nodes were collected three days after the alloantigen challenge and cells were counted. Data are shown as mean ± SD. Significant differences compared to vehicle-treated controls are indicated by asterisks (**** p < 0.0001; one-way ANOVA followed by Dunnett’s multiple comparison test).

[2] = cell-free TNF-R1–TNFα binding inhibition, read-out: TNF IC50

T3 sequence (P01375 85-233 limits assumed): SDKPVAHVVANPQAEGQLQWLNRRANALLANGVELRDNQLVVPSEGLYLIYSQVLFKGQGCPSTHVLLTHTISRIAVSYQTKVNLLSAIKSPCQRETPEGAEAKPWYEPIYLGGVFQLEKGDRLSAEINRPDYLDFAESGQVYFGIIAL

| Compound | IC50 (CD40–CD154 (CD40L)) [nM] | IC50 (OX40–OX40L) [µM] | IC50 (TNF-R1–TNFα; [2]) [µM] | inhibition of alloantigen-induced T cell expansion in draining lymph node [1] | selectivity toward CD40–CD154 against all other PPIs tested (CD40–CD154 (CD40L)) [fold] | selectivity toward CD40–CD154 against all other PPIs tested (CD40–CD154 (CD40L); listed as DRI-C21095) | IC50 (TNF-R1–TNFα; cell-free binding inhibition, read-out: TNF-R1–TNF IC50) [µM] |
| --- | --- | --- | --- | --- | --- | --- | --- |
| O=C(Nc1ccc(-c2ccc(C(=O)Nc3cccc4cccc(S(=O)(=O)O)c34)cc2)nc1)c1ccc([N+](=O)[O-])cc1 [Compound 18, 8-(4-(5-(4-Nitrobenzamido)pyridin-2-yl)benzamido)naphthalene-1-sulfonic acid] | 1340 | 5.48 | 46.9 | highly significant inhibitory activity; also recorded: inhibited the alloantigen-induced T cell response in this model in statistically significant manner |  |  |  |
| O=C(Nc1ccc(-c2ccc(C(=O)Nc3cccc4cccc(S(=O)(=O)O)c34)cc2)cc1)c1ccc([N+](=O)[O-])cc1 [Compound 6, 8-(4′-(4-Nitrobenzamido)biphenyl-4-ylcarboxamido)naphthalene-1-sulfonic acid] | 87 | 318 | > 1000 | highly significant inhibitory activity; also recorded: inhibited the alloantigen-induced T cell response in this model in statistically significant manner |  |  |  |
| COC(=O)c1ccc(-c2ccc(C(=O)Nc3ccc(-c4ccc(C(=O)Nc5cccc6cccc(S(=O)(=O)O)c56)cc4)cc3)cc2)cc1 [Compound 15, 8-(4′-(4′-(Methoxycarbonyl)-[1,1′-biphenyl]-4-carboxamido)-[1,1′-biphenyl]-4-carboxamido)naphthalene-1-sulfonic acid] | 19 | 1.01 | 26.5 | highly significant inhibitory activity; also recorded: inhibited the alloantigen-induced T cell response in this model in statistically significant manner | > 30 | more than thirty-fold | 26.5 |
